These are literature values, as cited in patent US20230405024A1 (priority 2020, published 2023).

On to cannabidiol [CBD], for which the solubility in water result is “insoluble”.
